Results on one substance are retold here after paper PMC11563544 (Journal of Cerebral Blood Flow & Metabolism, 2024).

In this test the test system is alpha-2C adrenergic receptor (α2CR). In words: in vivo PET receptor occupancy, competition with […]ORM-13070. Also on record: species or system Macaca fascicularis.

As usually defined, the EC50 is the concentration needed to bring the measured effect to its halfway point. A high value points to a less potent agent. BAY 292 displayed an EC50 of 0.03339 ± 0.01191 µg/mL.
